Results published in patent publication US20220396825A1, “METHOD FOR PREPARING […]” (KAO CORPORATION, priority 2019, published 2022).
Values joined by “and” are separate entries in the source; they are usually repeats but may differ in a detail not shown here. Equal values may be shown once.

Key:
Format in all cases: cell-based, Salmonella typhimurium
genome of TA100 strain [1] = assay: Mutation frequency in 3-MC-exposed library by sequencing utilizing information on complementary strands
Description: The flows of a sequencing method and mutation analysis used in Comparative Examples and Examples described later will be described in the following. Fundamentally, the highly accurate sequencing method utilizing information on complementary strands, which is described in Patent Literature 4, was used. Specifically, a library was subjected to sequencing, and read pairs expected to be derived from the same DNA fragment were collected. Then, a consensus read sequence (a consensus read sequence considering complementary strands) was generated among read sequences expected to be derived from two complementary strands (hereinafter, referred to as strand A and strand B) of the DNA fragment. Acquired consensus read sequences considering complementary strands were used for mutation analysis.
(§1) DMSO-exposed cells were prepared with the same procedure as in 1) of Comparative Example 1, and TA100 strain was exposed to 3-methylcholanthrene (3-MC) with the same procedure. In DMSO, 3-MC (produced by Sigma-Aldrich Co. LLC., CASRN.56-49-5) was dissolved. Into test tubes, 100 μL of the 3-MC solution, 500 μL of S9 mix (produced by IEDA TRADING Corporation), and 100 μL of the pre-culture solution for TA100 strain were added (amount of 3-MC: 1000 μg/tube), and the resultants were subjected to shaking culture at 100 rpm in a water bath at 37° C. for 20 minutes (3-MC-exposed cells). Cells were collected from the bacterial suspensions, and DNA was extracted with the same procedure as in 1) of Comparative Example 1.
From DNA derived from the DMSO-exposed cells or the 3-MC-exposed cells, a plurality of samples each of which was to give 60 ng or 100 ng of DNA were prepared, and the samples were each fragmented into pieces having a length of approximately 350 bp on average by using a DNA Shearing System ME220. The fragments of each sample were divided into two groups. For the group without nuclease treatment (nontreatment group), the DNA fragments were suspended in Resuspension buffer attached to the TruSeq for End Repair in the subsequent step in accordance with the recommended protocol to afford 60 μL of eluate. For the group with nuclease treatment (treatment group), the DNA fragments were purified through steps of adsorbing on Sample Purification Beads attached to the TruSeq (hereinafter, also expressed as beads, simply), washing twice with 80% ethanol water, and drying in accordance with the recommended protocol. In the subsequent elution operation, the beads were suspended in distilled water (DW, produced by NIPPON GENE CO., LTD.) to afford 30 μL of DNA eluate containing DNA fragments.
To the DNA eluate obtained in I), 4 μL of 10× Reaction Buffer attached to the S1 nuclease was added. The S1 nuclease was appropriately diluted with 1× Reaction Buffer, 1, 3, 10, 30, 100, or 300 U thereof was added to the DNA eluate, and DW was added thereto to a total volume of 40 μL. For the sample to which 1000 U of the S1 nuclease was to be added, 4.6 μL of 10× Reaction Buffer was added to 30 μL of the DNA eluate obtained by beads purification, and 12 μL of the stock solution of the S1 nuclease was added thereto to a total volume of 46 μL. Each reaction solution with the S1 nuclease was incubated at 30° C. for 30 minutes. Assuming that the whole amount of DNA (60 ng) present at the beginning of library preparation existed in each reaction solution, the numbers of units of the S1 nuclease per 1 ng of DNA were 0.02, 0.05, 0.17, 0.50, 1.67, 5.00, and 16.7 U/ng. For inactivation of the S1 nuclease in each reaction solution, 3 μL of 0.5 M EDTA (pH 8.0) (produced by NIPPON GENE CO., LTD.) was added, and the resultant was incubated at 70° C. for 10 minutes. […]

TA100 strain = assay: Ames test (pre-incubation method), number of revertant colonies; details: S9 mix; for Number of revertants: individual plates 1-3; for Number of revertants, Mean: mean of three plates
Experimental: Exposure of the TA100 cell line to DMSO was performed in accordance with the Ames pre-incubation method (Mol. Mech. Mutagen., 455:29-60, 2000, Sci. Rep. 8 (1):9583). TA100 strain was seeded in 2 mL of Nutrient Broth No. 2 (produced by Oxoid Limited), and subjected to shaking culture at 37° C. and 180 rpm for 4 hours to afford pre-culture solution with an OD660 value of 1.0 or higher. Into test tubes, 100 μL of DMSO, 500 μL of S9 mix (produced by IEDA TRADING Corporation), and 100 μL of the pre-culture solution were added, and the resultants were subjected to shaking culture at 100 rpm in a water bath at 37° C. for 20 minutes (DMSO-exposed cells). After shaking culture for 20 minutes, the test tubes each containing a culture solution were taken out of the water bath, and 50 μL of each culture solution was added to 2 mL of Nutrient Broth solution (containing 18.5% S9 mix) aliquoted in advance, and the resultant was further cultured in an incubator at 37° C. and 180 rpm for 14 hours. After the culture, the bacterial suspensions were collected and centrifuged at 7,500 rpm for 5 minutes, and the supernatants were removed to collect the cells. From the DMSO-exposed cells, total DNA was collected by using a DNeasy Blood & Tissue Kit (produced by QIAGEN) in accordance with the recommended protocol. The double-stranded DNA concentration of each DNA sample obtained was measured by using a Qubit3.0 Fluorometer (produced by Thermo Fisher Scientific) with a Qubit™ dsDNA BR Assay Kit attached thereto.
as §1, with “([…]),” for “(amount of 3-MC: 1000 μg/tube),”
For the Ames test, a bacterial suspension exposed to 3-MC under the above-described conditions was prepared. Thereto, 2 mL of top agar (containing 1% NaCl, 1% agar, 0.05 mM histidine, and 0.05 mM biotin) warmed to 45° C. was added and the resultant was stirred by using a Vortex, and poured onto a minimal glucose agar medium (Tesmedia® AN; produced by Oriental Yeast Co., Ltd.) to form a layer. The resulting plate was subjected to culturing at 37° C. for 48 hours, and the number of colonies observed was counted.

genome of TA100 strain [2] = assay: Mutation frequency in 3-MC-exposed library by sequencing utilizing information on complementary strands; remark: listed apart in the source

## Cc1ccc2cc3c(ccc4ccccc43)c3c2c1CC3 [3-MC, 3-methylcholanthrene]
Genome of TA100 strain [1]; 3-MC vs DMSO control, without MBN treatment, each n=3
  SN ratio determined from mean values of GC→TA mutation frequency: 1.61
Genome of TA100 strain [1]; 3-MC-exposed, without MBN treatment, n=3
  mean value of mutation frequency for GC→TA: 0.176×10^−6
Genome of TA100 strain [1]; MBN experiment, MBN 0 U/ng (nontreatment)
  GC → TA mutation frequency increase rate (3MC/DMSO control), SN ratio: 2.04
Genome of TA100 strain [1]; RecJf experiment, RecJf 0 U/ng (nontreatment)
  GC → TA mutation frequency increase rate (3MC/DMSO control), SN ratio: 2.04
Genome of TA100 strain [1]; library S1 nuclease 0 U/ng (nontreatment)
  GC → TA mutation frequency increase rate (3MC/DMSO control), SN ratio: 1.27
Genome of TA100 strain [1]; library treated with MBN 0.03 U/ng
  GC → TA mutation frequency increase rate (3MC/DMSO control), SN ratio: 1.60
Genome of TA100 strain [1]; library treated with MBN 0.10 U/ng
  GC → TA mutation frequency increase rate (3MC/DMSO control), SN ratio: 1.81
Genome of TA100 strain [1]; library treated with MBN 0.30 U/ng
  GC → TA mutation frequency increase rate (3MC/DMSO control), SN ratio: 1.34
Genome of TA100 strain [1]; library treated with MBN 1.00 U/ng
  GC → TA mutation frequency increase rate (3MC/DMSO control), SN ratio: 1.92
Genome of TA100 strain [1]; library treated with RecJf 1.00 U/ng
  GC → TA mutation frequency increase rate (3MC/DMSO control), SN ratio: 1.94
Genome of TA100 strain [1]; library treated with S1 nuclease 0.02 U/ng
  GC → TA mutation frequency increase rate (3MC/DMSO control), SN ratio: 2.1
Genome of TA100 strain [1]; library treated with S1 nuclease 0.05 U/ng
  GC → TA mutation frequency increase rate (3MC/DMSO control), SN ratio: 1.97
Genome of TA100 strain [1]; library treated with S1 nuclease 0.17 U/ng
  GC → TA mutation frequency increase rate (3MC/DMSO control), SN ratio: 2.72
Genome of TA100 strain [1]; library treated with S1 nuclease 0.50 U/ng
  GC → TA mutation frequency increase rate (3MC/DMSO control), SN ratio: 3.75
Genome of TA100 strain [1]; library treated with S1 nuclease 1.67 U/ng
  GC → TA mutation frequency increase rate (3MC/DMSO control), SN ratio: 3.35
Genome of TA100 strain [1]; library treated with S1 nuclease 5.00 U/ng
  GC → TA mutation frequency increase rate (3MC/DMSO control), SN ratio: 1.63
Genome of TA100 strain [1]; library treated with S1 nuclease 16.7 U/ng
  GC → TA mutation frequency increase rate (3MC/DMSO control), SN ratio: 3.59
TA100 strain; 3-MC 10 μg/plate
  Number of revertants: 887 and 881 and 1279
  Number of revertants, Mean: 1016
TA100 strain; 3-MC 20 μg/plate
  Number of revertants: 1539 and 1484 and 1509
  Number of revertants, Mean: 1511
TA100 strain; 3-MC 100 μg/plate
  Number of revertants: 1519 and 1539 and 1797
  Number of revertants, Mean: 1618
Genome of TA100 strain [2]; library treated with RecJf 0.03 U/ng
  GC → TA mutation frequency increase rate (3MC/DMSO control), SN ratio: 1.48
Genome of TA100 strain [2]; library treated with RecJf 0.10 U/ng
  GC → TA mutation frequency increase rate (3MC/DMSO control), SN ratio: 2.14
Genome of TA100 strain [2]; library treated with RecJf 0.30 U/ng
  GC → TA mutation frequency increase rate (3MC/DMSO control), SN ratio: 1.68
